Measured values published in US7053177B1, “Random peptides that bind to gastro-intestinal tract (GIT) transport receptors and related methods” (Cytogen Corporation, priority 1997, dated 2006).
Ends that are not written are not given here. Peptide text beside a SMILES is read from it. * marks the point of attachment. Dansyl = CN(C)c1cccc2c(S(=O)(=O)*)cccc12; K(dns) = dansyl-lysine

System: P100 membrane fraction of Caco-2 cells
Experiment: Dansylated peptide ELISA: relative binding of PAX2 and HAX42 peptides to P100 fractions (ratio to ZElan021)
Conditions: ratio to ZElan021 = 1.00
Protocol: The peptides and proteins were analyzed by a dansylated peptide ELISA method in which 96 well plates were coated overnight at 4° C. with 100 μl/well coating protein (normally 100 μg/ml P100 membrane fraction) in 0.05M carbonate buffer pH9.6. Nonspecific binding was blocked using 200 μl/well, 2% Marvel/PBS for 2 hours at 37° C. prior to incubation with dansylated peptides. The plates were washed three times with PBS/0.05% Tween 20 and after each subsequent incubation step. […] A buffer blank control was included to ensure that background binding to plastic was not due to the antibodies used in the assay system. […] Plates were developed using 75 μl/well Bionostics TMB substrate and incubated for approximately 10 minutes. The developing reaction was stopped using Bionostics Red Stop solution (25 μl/well), and the optical density of the plates was read at 650 nm. […]

C[C@H](NC(=O)[C@H](CC(N)=O)NC(=O)[C@@H](NC(=O)[C@@H](N)CCCCNS(=O)(=O)c1cccc2c(N(C)C)cccc12)[C@@H](C)O)C(=O)N[C@@H](CCCCN)C(=O)N[C@@H](Cc1c[nH]cn1)C(=O)N[C@@H](CO)C(=O)N[C@@H](CO)C(=O)N[C@@H](Cc1c[nH]cn1)C(=O)N[C@@H](CC(N)=O)C(N)=O [ZElan055] (H-K(Dansyl)TNAKHSSHN-NH2)
Binding value at 20 μg/ml (PAX2 peptides, first column): 0.99
Binding value at 20 μg/ml (PAX2 peptides, second column): 0.73
Binding value at 50 μg/ml (PAX2 peptides, first column): 1.10
Binding value at 50 μg/ml (PAX2 peptides, second column): 0.59

H2N—K(dns)SDNAKEPGDYNCCGNGNSTG ({K(dns)}-SDNAKEPGDYNCCGNGNSTG-NH2; cysteine pairing not given here) [ZElan088]
Binding value at 25 μg/ml (HAX42 peptides, first column): 2.21
Binding value at 25 μg/ml (HAX42 peptides, second column): 1.41
Binding value at 25 μg/ml (HAX42 peptides, third column): 1.63

C[C@H](NC(=O)[C@H](CCCNC(=N)N)NC(=O)[C@H](CCCNC(=N)N)NC(=O)[C@H](CC(N)=O)NC(=O)[C@H](Cc1c[nH]cn1)NC(=O)[C@H](CO)NC(=O)[C@H](CO)NC(=O)[C@@H](N)CCCCNS(=O)(=O)c1cccc2c(N(C)C)cccc12)C(=O)N[C@@H](CCCNC(=N)N)C(=O)N[C@H](C(=O)N[C@@H](CCCNC(=N)N)C(N)=O)[C@@H](C)O [ZElan079] (H-K(Dansyl)SSHNRRARTR-NH2)
Binding value at 20 μg/ml (PAX2 peptides, first column): 0.31
Binding value at 50 μg/ml (Jackson Ab) (PAX2 peptides): 0.83
Binding value at 50 μg/ml (Southern Ab) (PAX2 peptides): 0.53
Binding value at 50 μg/ml (PAX2 peptides, first column): 0.97
Binding value at 50 μg/ml (PAX2 peptides, second column): 0.68

CC(C)C[C@H](NC(=O)[C@H](CCCNC(=N)N)NC(=O)[C@H](CCCNC(=N)N)NC(=O)[C@@H](N)CCCCNS(=O)(=O)c1cccc2c(N(C)C)cccc12)C(=O)N[C@@H](CCCNC(=N)N)C(=O)N[C@H](C(=O)N[C@@H](CCCNC(=N)N)C(=O)N[C@@H](CO)C(=O)N[C@@H](CCCNC(=N)N)C(N)=O)[C@@H](C)O [ZElan057] (H-K(Dansyl)RRLRTRSR-NH2)
Binding value at 20 μg/ml (PAX2 peptides, first column): 0.08
Binding value at 50 μg/ml (PAX2 peptides, first column): 0.56
Binding value at 50 μg/ml (PAX2 peptides, second column): 0.25

CC(C)C[C@H](NC(=O)[C@H](C)NC(=O)[C@H](Cc1c[nH]cn1)NC(=O)[C@H](CC(=O)O)NC(=O)[C@H](CO)NC(=O)[C@@H](N)CCCCNS(=O)(=O)c1cccc2c(N(C)C)cccc12)C(=O)NCC(=O)N[C@H](C(=O)N[C@@H](CC(N)=O)C(=O)N[C@@H](CC(C)C)C(=O)N[C@@H](CCCNC(=N)N)C(=O)N[C@@H](CO)C(=O)N[C@@H](CC(=O)O)C(=O)N[C@@H](CC(N)=O)C(=O)N[C@@H](C)C(=O)N[C@@H](CCCCN)C(=O)N[C@@H](CCC(=O)O)C(=O)N1CCC[C@H]1C(=O)NCC(=O)N[C@@H](CC(=O)O)C(=O)N[C@@H](Cc1ccc(O)cc1)C(=O)N[C@@H](CC(N)=O)C(=O)N[C@@H](CS)C(=O)N[C@@H](CS)C(=O)NCC(=O)N[C@@H](CC(N)=O)C(=O)NCC(=O)N[C@@H](CC(N)=O)C(=O)N[C@@H](CO)C(=O)N[C@H](C(N)=O)[C@@H](C)O)[C@@H](C)O [ZElan070] (H-K(Dansyl)SDHALGTNLRSDNAKEPGDYNCCGNGNST-NH2)
Binding value at 20 μg/ml (HAX42 peptides): 0.59
Binding value at 50 μg/ml (HAX42 peptides, first column): 0.97
Binding value at 50 μg/ml (HAX42 peptides, second column): 0.39

CC(C)C[C@H](NC(=O)[C@H](CCCNC(=N)N)NC(=O)[C@H](CCCNC(=N)N)NC(=O)[C@H](CC(N)=O)NC(=O)[C@H](C)NC(=O)[C@H](CO)NC(=O)[C@H](CO)NC(=O)[C@@H](N)CCCCNS(=O)(=O)c1cccc2c(N(C)C)cccc12)C(=O)N[C@@H](CCCNC(=N)N)C(=O)N[C@H](C(=O)N[C@@H](CCCNC(=N)N)C(N)=O)[C@@H](C)O [ZElan075] (H-K(Dansyl)SSANRRLRTR-NH2)
Binding value at 20 μg/ml (PAX2 peptides, first column): 0.13
Binding value at 50 μg/ml (Jackson Ab) (PAX2 peptides): 0.47
Binding value at 50 μg/ml (Southern Ab) (PAX2 peptides): 0.32
Binding value at 50 μg/ml (PAX2 peptides, first column): 0.52
Binding value at 50 μg/ml (PAX2 peptides, second column): 0.38

H2N—K(dns)SDHALGTNLRSDNAKEPGDY ({K(dns)}-SDHALGTNLRSDNAKEPGDY; not fully specified (C-terminus); printed as H2N—K(dns)SDHALGTNLRSDNAKEPGDY) [ZElan087]
Binding value at 25 μg/ml (HAX42 peptides, first column): 0.46
Binding value at 25 μg/ml (HAX42 peptides, second column): 0.44
